In ChEMBL document CHEMBL5370643, “Discovery of MK-1468: A Potent, Kinome-Selective, Brain-Penetrant Amidoisoquinoline LRRK2 Inhibitor for the Potential Treatment of Parkinson's Disease” (J Med Chem, 2023):
≈ marks a conversion by molar mass, not a printed value.

How the values were obtained:
[1] = biological target: Leucine-rich repeat serine/threonine-protein kinase 2 (Homo sapiens, UniProt Q5S007, G2019S); test: Inhibition of recombinant N-terminal GST-fused LRRK2 […] mutant (970 to 2527 residues) (unknown origin) using LRRKtide peptide as substrate assessed as inhibition of substrate phosphorylation preincubated with compound for 15 mins followed by substrate addition and measured after 90 mins in presence of ATP by TR-FRET assay
[2] = tested on: rat Mdr1a P-gp; test: Apparent permeability across apical to basolateral side in LLC-PK1 cells transfected with rat Mdr1a P-gp incubated for 3 hrs by LC-MS/MS analysis; conditions: pig
[3] = biological target: Voltage-gated inwardly rectifying potassium channel KCNH2 (Homo sapiens, UniProt Q12809); test: Inhibition of hERG expressed in CHO cells by QPatch voltage clamp assay
Chain of Voltage-gated inwardly rectifying potassium channel KCNH2 (Q12809 whole entry): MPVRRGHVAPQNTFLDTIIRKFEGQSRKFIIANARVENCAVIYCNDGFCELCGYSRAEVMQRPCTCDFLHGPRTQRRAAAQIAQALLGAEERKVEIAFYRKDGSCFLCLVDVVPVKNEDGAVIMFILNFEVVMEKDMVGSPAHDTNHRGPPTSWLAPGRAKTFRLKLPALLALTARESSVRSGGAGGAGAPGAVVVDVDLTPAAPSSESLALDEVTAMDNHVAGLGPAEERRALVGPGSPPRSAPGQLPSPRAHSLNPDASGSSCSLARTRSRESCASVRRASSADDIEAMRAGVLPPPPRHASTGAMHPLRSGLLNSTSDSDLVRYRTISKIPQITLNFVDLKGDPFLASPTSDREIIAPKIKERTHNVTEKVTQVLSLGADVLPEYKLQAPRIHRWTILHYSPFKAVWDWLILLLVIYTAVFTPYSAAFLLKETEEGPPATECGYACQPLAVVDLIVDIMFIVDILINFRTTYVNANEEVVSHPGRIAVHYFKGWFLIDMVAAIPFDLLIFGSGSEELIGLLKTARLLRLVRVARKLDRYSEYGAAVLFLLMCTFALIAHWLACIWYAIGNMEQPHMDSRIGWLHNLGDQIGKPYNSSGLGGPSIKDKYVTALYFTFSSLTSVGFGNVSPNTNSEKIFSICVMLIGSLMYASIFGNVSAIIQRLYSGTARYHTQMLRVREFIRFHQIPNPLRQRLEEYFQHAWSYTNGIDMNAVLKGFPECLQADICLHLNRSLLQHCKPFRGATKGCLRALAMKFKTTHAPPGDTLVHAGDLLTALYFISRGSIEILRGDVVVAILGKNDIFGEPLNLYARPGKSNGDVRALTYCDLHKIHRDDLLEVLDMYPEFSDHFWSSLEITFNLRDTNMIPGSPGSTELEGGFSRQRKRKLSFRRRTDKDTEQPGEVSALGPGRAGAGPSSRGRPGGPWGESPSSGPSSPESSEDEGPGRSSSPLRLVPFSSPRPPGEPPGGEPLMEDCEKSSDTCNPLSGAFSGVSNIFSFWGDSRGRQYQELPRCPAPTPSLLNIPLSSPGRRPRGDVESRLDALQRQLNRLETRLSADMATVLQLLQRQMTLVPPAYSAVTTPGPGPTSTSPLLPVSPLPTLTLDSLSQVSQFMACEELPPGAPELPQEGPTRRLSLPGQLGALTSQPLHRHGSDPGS

[4] = Intrinsic clearance in Wistar-Han rat at 3 mg/kg, iv measured after 24 hrs by LC-MS/MS analysis; format: ADME, organism-based; conditions: in vivo
[5] = Intrinsic clearance in rhesus monkey at 3 mg/kg, iv measured after 24 hrs by LC-MS/MS analysis; format: ADME, organism-based, Macaca mulatta; conditions: in vivo
[6] = Total clearance in Beagle dog at 0.5 mg/kg, iv measured after 24 hrs by LC-MS/MS analysis; format: ADME, organism-based, Canis lupus familiaris; conditions: in vivo
[7] = Intrinsic clearance in Beagle dog at 0.5 mg/kg, iv measured after 24 hrs by LC-MS/MS analysis; format: ADME, organism-based, Canis lupus familiaris; conditions: in vivo
[8] = Oral bioavailability in rhesus monkey at 10 mg/kg measured after 24 hrs by LC-MS/MS analysis; format: ADME, organism-based, Macaca mulatta; conditions: in vivo
[9] = Protein binding in rat plasma incubated for 4 hrs by equilibrium dialysis method; format: ADME, cell-free; conditions: read-out: PPB (converted)
[10] = Protein binding in dog plasma incubated for 4 hrs by equilibrium dialysis method; format: ADME, cell-free, Canis lupus familiaris; conditions: read-out: PPB (converted)
[11] = Kinetic solubility of compound in PBS at pH 2 measured after 24 hrs by UPLC/DAD analysis; format: physicochemical; conditions: read-out: Kinetic_solubility
[12] = Kinetic solubility of compound in PBS at pH 7 measured after 24 hrs by UPLC/DAD analysis; format: physicochemical; conditions: read-out: Kinetic_solubility
[13] = Mutagenicity in Salmonella typhimurium TA1535 at 30 to 5000 ug/plate incubated for 48 hrs in absence of Wistar-Han rat S9 fraction by Ames test; format: toxicity; conditions: salmonella enterica subsp. enterica serovar typhimurium, s9, 48 h
[14] = Mutagenicity in Salmonella typhimurium TA98 at 30 to 5000 ug/plate incubated for 48 hrs in absence of Wistar-Han rat S9 fraction by Ames test; format: toxicity; conditions: salmonella enterica subsp. enterica serovar typhimurium, s9, 48 h
[15] = Mutagenicity in Salmonella typhimurium TA100 at 30 to 5000 ug/plate incubated for 48 hrs in absence of Wistar-Han rat S9 fraction by Ames test; format: toxicity; conditions: salmonella enterica subsp. enterica serovar typhimurium, s9, 48 h
[16] = Mutagenicity in Salmonella typhimurium TA100 at 30 to 5000 ug/plate incubated for 48 hrs in presence of Wistar-Han rat S9 fraction by Ames test; format: toxicity, subcellular; conditions: salmonella enterica subsp. enterica serovar typhimurium, s9, 48 h
[17] = biological target: hERG (KCNH2) (Homo sapiens, UniProt Q12809); test: Inhibition of hERG expressed in CHO cells at 30 uM by QPatch voltage clamp assay relative to control; format: toxicity, cell-based; conditions: CHO cells expressing hERG
Chain of hERG (KCNH2) (Q12809 whole entry): as above

[18] = biological target: Nav1.5 (SCN5A) (Homo sapiens, UniProt Q14524); test: Inhibition of human Nav1.5 expressed in HEK293 cells at 10 uM by QPatch voltage clamp assay relative to control; format: cell-based; conditions: HEK293 cells expressing human Nav1.5
Chain of Nav1.5 (SCN5A) (Q14524 whole entry): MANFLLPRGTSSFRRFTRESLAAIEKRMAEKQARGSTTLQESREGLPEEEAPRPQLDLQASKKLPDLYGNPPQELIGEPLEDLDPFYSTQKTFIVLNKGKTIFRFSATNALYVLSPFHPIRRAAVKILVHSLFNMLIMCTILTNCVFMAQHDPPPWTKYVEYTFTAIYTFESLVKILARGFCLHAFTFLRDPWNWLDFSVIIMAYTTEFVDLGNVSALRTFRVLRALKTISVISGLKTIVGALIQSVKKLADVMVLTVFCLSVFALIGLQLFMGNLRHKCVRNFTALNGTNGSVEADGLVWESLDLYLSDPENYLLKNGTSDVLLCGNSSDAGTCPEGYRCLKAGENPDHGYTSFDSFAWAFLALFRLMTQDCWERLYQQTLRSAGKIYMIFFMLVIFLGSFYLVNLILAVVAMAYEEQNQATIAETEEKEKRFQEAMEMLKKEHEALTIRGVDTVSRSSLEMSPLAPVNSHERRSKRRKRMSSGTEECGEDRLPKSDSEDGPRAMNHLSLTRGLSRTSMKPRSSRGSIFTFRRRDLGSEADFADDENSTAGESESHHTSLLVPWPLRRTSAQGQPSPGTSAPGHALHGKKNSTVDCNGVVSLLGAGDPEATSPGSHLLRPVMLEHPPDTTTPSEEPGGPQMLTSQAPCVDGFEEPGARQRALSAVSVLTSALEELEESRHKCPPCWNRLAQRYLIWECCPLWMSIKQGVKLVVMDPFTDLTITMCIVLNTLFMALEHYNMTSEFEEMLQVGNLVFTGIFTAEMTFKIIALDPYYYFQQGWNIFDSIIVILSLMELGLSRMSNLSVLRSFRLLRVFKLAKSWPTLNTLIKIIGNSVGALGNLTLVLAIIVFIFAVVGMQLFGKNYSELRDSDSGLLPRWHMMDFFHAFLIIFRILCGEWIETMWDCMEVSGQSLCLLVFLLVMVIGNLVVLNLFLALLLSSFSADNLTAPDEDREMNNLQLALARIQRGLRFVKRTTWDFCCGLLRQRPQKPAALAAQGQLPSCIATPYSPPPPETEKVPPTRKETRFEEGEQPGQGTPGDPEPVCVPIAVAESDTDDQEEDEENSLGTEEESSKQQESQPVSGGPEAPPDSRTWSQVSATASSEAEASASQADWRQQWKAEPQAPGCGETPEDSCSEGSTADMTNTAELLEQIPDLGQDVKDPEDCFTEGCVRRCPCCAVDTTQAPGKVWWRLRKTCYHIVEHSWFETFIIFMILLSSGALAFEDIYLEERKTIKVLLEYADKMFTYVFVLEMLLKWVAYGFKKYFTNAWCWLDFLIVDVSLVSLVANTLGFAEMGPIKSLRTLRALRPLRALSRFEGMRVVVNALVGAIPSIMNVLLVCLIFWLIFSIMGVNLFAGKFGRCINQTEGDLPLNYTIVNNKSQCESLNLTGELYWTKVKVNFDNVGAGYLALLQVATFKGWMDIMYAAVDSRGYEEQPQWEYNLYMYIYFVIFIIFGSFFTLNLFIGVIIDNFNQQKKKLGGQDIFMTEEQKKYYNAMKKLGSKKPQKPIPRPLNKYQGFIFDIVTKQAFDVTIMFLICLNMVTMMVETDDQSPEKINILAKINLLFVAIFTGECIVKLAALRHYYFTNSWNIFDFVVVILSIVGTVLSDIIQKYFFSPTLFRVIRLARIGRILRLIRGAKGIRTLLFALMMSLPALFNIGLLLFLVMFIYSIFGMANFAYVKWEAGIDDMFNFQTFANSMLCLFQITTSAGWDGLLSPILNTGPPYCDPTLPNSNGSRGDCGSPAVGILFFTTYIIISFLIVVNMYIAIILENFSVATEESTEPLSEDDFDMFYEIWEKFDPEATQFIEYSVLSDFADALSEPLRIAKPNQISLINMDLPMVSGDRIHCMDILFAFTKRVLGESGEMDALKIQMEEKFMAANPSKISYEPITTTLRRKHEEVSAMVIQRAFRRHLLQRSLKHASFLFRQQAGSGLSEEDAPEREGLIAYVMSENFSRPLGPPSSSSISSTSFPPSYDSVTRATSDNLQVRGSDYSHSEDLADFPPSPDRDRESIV

[19] = Unbound drug concentration in guinea pig plasma at 15 mg/kg, iv administered continuously for 20 mins; format: ADME, organism-based, Cavia porcellus; conditions: in vivo
[20] = Unbound drug concentration in guinea pig plasma at 20 mg/kg, iv administered continuously for 20 mins; format: ADME, organism-based, Cavia porcellus; conditions: in vivo
[21] = Cardiotoxicity in guinea pig assessed as effect on heart rate at 5 to 20 mg/kg, iv administered continuously for 20 min by ECG analysis; format: toxicity, organism-based, Cavia porcellus; conditions: in vivo, dose 5-20 mg/kg
[22] = tested on: Brain; test: In vivo inhibition of LRRK2 in Wistar-Han rat assessed as reduction in Ser935 phosphorylation in brain at 1 to 100 mg/kg, po measured after 2 hrs; format: functional; conditions: dose 1-100 mg/kg
[23] = tested on: PBMC; test: Inhibition of LRRK2 in rat PBMC assessed as Ser935 dephosphorylation; format: cell-based
[24] = AUC (0 to 24 hrs) in Wistar-Han rat at 48 mg administered twice a day by LC-MS/MS analysis; format: ADME; design: dose 48 mg; conditions: in vivo
[25] = Toxicity in Wistar-Han rat assessed as effect on diastolic blood pressure at 60 mg/kg, po administered as single dose and measured upto 24 hrs by telemetric analysis; format: organism-based; conditions: in vivo
[26] = Toxicity in Wistar-Han rat assessed as effect on arterial pulse pressure at 60 mg/kg, po administered as single dose and measured upto 24 hrs by telemetric analysis; format: organism-based; conditions: in vivo
[27] = Toxicity in Wistar-Han rat assessed as effect on heart rate at 60 mg/kg, po administered as single dose and measured upto 24 hrs by telemetric analysis; format: organism-based; conditions: in vivo
[28] = Toxicity in Wistar-Han rat assessed as effect on heart rate at 225 mg/kg, po administered as single dose and measured after 5 to 8 hrs by telemetric analysis; format: organism-based; conditions: in vivo, time 5-8 hrs
[29] = Toxicity in Wistar-Han rat assessed as effect on body temperature at 225 mg/kg, po administered as single dose and measured upto 24 hrs by telemetric analysis; format: organism-based; conditions: in vivo
[30] = Toxicity in po dosed Wistar-Han rat assessed as NOAEL measured upto 24 hrs; format: organism-based; conditions: in vivo, read-out: Activity
[31] = AUC in Wistar-Han rat at 225 mg/kg, po administered once daily for 7 days; format: ADME, organism-based; design: time 7 day, dose 225 mg/kg, route po; conditions: in vivo
[32] = Toxicity in Wistar-Han rat assessed as clinical observations at 750 mg/kg, po administered once daily for 7 days; format: organism-based; conditions: in vivo, 168 h, time 7 day
[33] = Toxicity in Wistar-Han rat assessed as squamous hyperplasia of nonglandular stomach at 750 mg/kg, po administered once daily for 7 days; format: organism-based; conditions: in vivo, 168 h, time 7 day
[34] = Toxicity in Wistar-Han rat assessed as micronucleus induction in bone marrow at 40 to 750 mg/kg, po administered once daily for 7 days by micronucleus test; format: organism-based; conditions: in vivo, 168 h, dose 40-750 mg/kg, time 7 day
[35] = Toxicity in rhesus monkey assessed as tolerance at 100 to 800 mg/kg, po administered once daily for 7 days; format: organism-based, Macaca mulatta; conditions: in vivo, 168 h, dose 100-800 mg/kg, time 7 day
[36] = AUC in rhesus monkey at 100 mg/kg, po administered once daily for 7 days; format: ADME, organism-based, Macaca mulatta; design: dose 100 mg/kg, time 7 day, route po; conditions: in vivo
[37] = AUC in rhesus monkey at 200 mg/kg, po administered once daily for 7 days; format: ADME, organism-based, Macaca mulatta; design: dose 200 mg/kg, time 7 day, route po; conditions: in vivo
[38] = Toxicity in rhesus monkey assessed as clinical observation at 100 to 800 mg/kg, po administered once daily for 7 days; format: organism-based, Macaca mulatta; conditions: in vivo, 168 h, dose 100-800 mg/kg, time 7 day
[39] = Toxicity in rhesus monkey assessed as body weight loss at 100 to 800 mg/kg, po administered once daily for 7 days; format: organism-based, Macaca mulatta; conditions: in vivo, 168 h, dose 100-800 mg/kg, time 7 day
[40] = Toxicity in rhesus monkey assessed as lung type II pneumocyte hypertrophy at 200 to 800 mg/kg, po administered once daily for 7 days; format: organism-based, Macaca mulatta; conditions: in vivo, 168 h, dose 200-800 mg/kg, time 7 day

C[C@@]1(N2CCN(c3cc4cc(NC(=O)[C@H]5CC56CCOCC6)ncc4cc3Cl)CC2)COC[C@@H]1O
IC50 [1]: 0.4 nM
Papp A→B at 3 h [2]: 30 ×10⁻⁶ cm/s
IC50 [3]: > 60000 nM
CL [4]: 1435 mL/min/kg
CL [5]: 736 mL/min/kg
clearance [6]: 11 mL/min/kg
CL [7]: 149 mL/min/kg
bioavailability [8]: 9%
fraction unbound at 4 h [9]: 0.115
fraction unbound at 4 h [10]: 0.13
solubility kinetic at 24 h [11]: 182 µM (≈ 91.2 µg/mL)
solubility kinetic at 24 h [12]: < 3 µM
Activity [13]: Non-Toxic
Activity [14]: Non-Toxic
Activity [15]: Non-Toxic
Activity [16]: Non-Toxic
inhibition at 30 µM [17]: 39%
inhibition at 10 µM [18]: 23%
Cp(f) [19]: 5.69 µM
Cp(f) [20]: 11.9 µM
Activity [21]: Non-Toxic
fIC50 [22]: 33 nM
fIC50 [23]: 25 nM
AUC [24]: 6 µM·h
Activity [25]: Non-Toxic
Activity [26]: Non-Toxic
Activity [27]: Non-Toxic
Activity [28]: Toxic
Activity [29]: Non-Toxic
NOAEL at 24 h [30]: 60 mg/kg
AUC at 168 h [31]: 88 µM·h
Activity [32]: Non-Toxic
Activity [33]: Toxic
Activity [34]: Non-Toxic
Activity [35]: Non-Toxic
AUC at 168 h [36]: 14 µM·h
AUC at 168 h [37]: 25 µM·h
Activity [38]: Non-Toxic
Activity [39]: Non-Toxic
Activity [40]: Toxic
